Measured values: article PMC5267425, “Identification of small molecule modulators of HIV-1 Tat and Rev protein accumulation” (Retrovirology, 2017)

What was measured:
Assay type in all cases: cell-based
[1] = in vitro; details: human
Protocol: (§1) To assess the activity of compounds against HIV-1 strains having resistance to various ART drugs, assays were performed in the context of CEM-GXR cells. These cells express CD4, CXCR4, and coreceptor, CCR5 as well as an exogenous Tat-driven LTR-GFP expression cassette. Cultures were infected with different HIV-1 strains of interest, differing on their subtypes (A and B), and resistance to three major drug targets (reverse transcriptase, protease, and integrase). The culture contains serial dilutions of the molecule in the final concentrations from 0.156 to 5 μM for 833; 725 nM to 46.87 μM for 791; 1.95 to 62.5 μM for 892. Antiviral activity was evaluated in the assay by measuring inhibition of HIV-1 spread in a coculture of CEM-GXR cells containing 1% of HIV-1 infected (GFP positive) cells using flow cytometric analysis (GuavaSoft 2.2 software, Guava HT8, Millipore). To estimate the viable cell counts, the gate in a flow cytometer (Guava HT8) was set to cover 95% of the freshly passaged uninfected CEM-GXR cell or using ViaCount™. The same parameter was employed to gate viable cells in the inhibition assay and the number of gated cells was obtained by GuavaSoft 2.2 software. For assays using ViaCount™, sample acquisition and data analysis were performed with the selection of EasyFit analysis feature using the ViaCount™ software module.
Additional file 1: Figure S1. […] Cell viability was measured by an XTT assay. […] Cells were analyzed after 24 h incubation with the compounds at the indicated concentrations ranging between 0–47 μM (791), 0–5 μM (833), or 0–62.5 μM (892). Results are expressed as the percentage (%) of viable cells relative to DMSO treatment ±SEM of two independent experiments performed in triplicate. […] Images are cropped to show a representative field of view. b The dose range of the compounds which inhibit HIV-1 GagGFP expression in HeLa rtTA HIVGagGFP C7 cells was measured by mean fluorescence intensity and expressed relative to fluorescence intensity in DMSO-treated samples (N ≥ 3, *p ≤ 0.05, **p ≤ 0.01, and ***p ≤ 0.001). […]

[2] = test system: total protein synthesis in HeLa HIVrtTA∆Mls cells; test: SUnSET total protein synthesis; details: doses that significantly reduced HIV-1 protein expression, ∓Dox
Protocol: The effect of the compounds on nascent protein synthesis was measured by surface sensing of translation (SUnSET) as described by Schmidt et al.. Cells were incubated with puromycin, an aminoacyl tRNA analog, to allow puromycin incorporation into newly translated peptides and prevention of further ribosomal elongation by chain termination. To assess the effect of the compounds on protein translation, cells were prepared and treated as described above, but were incubated with 10 μg/mL of puromycin for a period of 30 min prior to harvesting cell lysates for protein analysis. Protein concentration of cell lysates was quantified by Bradford assay and equal amounts of protein (30–35 μg) was run on either 10% or 4–15% (gradient) gels. Following transfer to PVDF (BioRad), blots were probed with mouse monoclonal antibody to puromycin (anti-12D10, EMD Millipore). Blots were developed using ECL Plus (Perkin-Elmer) or Clarity (BioRad) and imaged using the ChemiDoc MP Imager (BioRad). To quantify the levels of protein synthesis, the volume intensity in each lane of compound-treated sample was calculated relative to the DMSO-treated sample and normalized to GAPDH loading control using ImageLab software (BioRad) from at least four independent experiments.

[3] = Viable cell count by FSC/SSC gate, CEM-GXR; details: human, CEM-GXR cells infected with a Clade B HIV-1 strain
Protocol: as §1

Structure (SMILES) | CC50 at 24 h [1] [µM] | reduction in protein synthesis relative to DMSO [2] | CC50 [3] [µM]
Cc1cc(NCc2cccnc2)n2ncc(-c3ccc(Cl)cc3)c2n1 [Compound 791, 3-(4-chlorophenyl)-5-methyl-N-(3-pyridinylmethyl)pyrazolo[1,5-a]pyrimidin-7-amine] | 24 | little or no effect | > 12
O=C(NC(=S)NNC(=O)c1ccccc1O)c1ccc(-c2ccccc2)cc1 [Compound 833, N-([2-(2-hydroxybenzoyl)hydrazino]carbonothioyl}-4-biphenylcarboxamide] | > 5 | little or no effect | > 5
COc1ccc(C=NNC(=O)c2ccccc2O)cc1O [Compound 892, 2-hydroxy-N′-(3-hydroxy-4-methoxybenzylidene)benzohydrazide] | 60 | ~ 25% | 31
